Source: patent publication US10336792B2, “Antimicrobial peptide dendrimers” (priority 2014, dated 2019)
Converted amounts (≈) assume the structure as drawn. Read-outs that look alike come from different tables or passages of the source. Positions of bridges follow the written chain, without caps; N, C: chain ends. Residues, ends and D or L forms follow the SMILES beside them. Groups on a side chain read outwards from the residue. Chains are numbered I, II in the order given.

What was measured:
P. aeruginosa PA01 (WT) = format: cell-based, Pseudomonas aeruginosa; conditions: WT
Method: (§1) Antimicrobial activity was assayed against P. aeruginosa PA01 (WT), P. aeruginosa PT1482 (A-), PT1485 (A-B-), PT1149 (A-B-C-algC), PT331 (Z61) (LPS mutants), P. aeruginosa PEJ2.6, PEJ9.1, ZEM1.A, ZEM9.A (clinical isolates from Université de Genève/Centre Médical Universitaire), Burkholderia cenocepacia (B. ceno), Staphylococcus aureus (S. aureus, MRSA strain) and Acinetobacter baumannii (A. baum) (clinical isolates from Université de Genève/Centre Médical Universitaire). To determine the minimal inhibitory concentration (MIC), microdilution broth method was used. A colony of bacteria was grown in MH-medium overnight at 37° C. The samples were prepared as stock solutions of 8 mg mL^−1 in H2O, diluted to the beginning concentration of 32, 64, 128 or 256 μg/mL in 300 μL MH-medium, added to the first well of 96-well microtiterplate (TPP, untreated) and diluted serially by ½. The concentration of the bacteria was quantified by measuring absorbance at 600 nm and diluted to OD600=0.022 in MH-medium. The sample solutions (150 μL) were mixed with 4 μL diluted bacterial suspension with a final inoculation of about of 5×10^5 CFU. The plates were incubated at 37° C. until satisfactory growth (˜18 h). For each test, two columns of the plate were kept for sterility control (SC, broth only) and growth control (GC, broth with bacterial inoculums, no antibiotics). The minimal inhibitory concentration (MIC) was defined as the lowest concentration of the antimicrobial substance (peptide dendrimer) that inhibited visible growth of the tested bacteria with the unaided eye. For microbiological study Polymyxin was used as references.

[1] = system: P. aeruginosa PEJ2.6, PEJ9.1, ZEM1.A, ZEM9.A (clinical isolates); format: cell-based, Pseudomonas aeruginosa; conditions: PEJ2.6, PEJ9.1, ZEM1.A, ZEM9.A (clinical isolates)
Method: as §1
(§2) Ten of the most promising compounds (FIG. 5) were tested for their efficiency against four clinical isolates of P. aeruginosa (ZEM9.A, ZEM1.A, PEJ2.6, PEJ9.1), one S. aureus (COL, MRSA reference strain) and one A. baumannii strain. For the experiments in Genève the peptide dendrimers and reference compounds (polymyxin) were dissolved in PBS and the assay was carried out in Müller-Hinton (MH) broth with a two-fold dilution.

Acinetobacter baumannii = format: cell-based
Method: as §1, §2

[2] = system: Staphylococcus aureus (COL, MRSA reference strain); format: cell-based; conditions: COL, reference strain
Method: as §1, §2

[3] = system: Pseudomonas aeruginosa (strain PA01); assay: microbe, parasite or virus in culture; format: cell-based
Summary of the method: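 P. aeruginosa PAO1 grown overnight in LB, diluted to OD600 0.001 and mixed with ⅔-step peptide dilutions, then incubated at 37 °C for 18–24 h. After MTT staining, the lowest concentration with no visible growth was read by eye as the MIC.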

[4] = system: Bacillus subtilis (strain BR151); format: cell-based
Summary of the method: (§3)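 Broth microdilution MIC in LB; overnight cultures diluted to OD600 0.001 and mixed 1:1 with ⅔-serially diluted samples (stock 1 mg mL^−1 in H2O), 37° C for 18-24 h. MTT (0.1%) added; MIC read by eye as lowest concentration inhibiting visible growth (yellow).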

[5] = system: human red blood cells (hRBC); assay: Haemolysis assay, minimal haemolytic concentration (MHC); format: cell-based; conditions: hRBC in PBS pH 7.4, 4 h, room temperature
Method: To determine the minimal haemolytic concentration (MHC) stock solutions of 8 mg/mL of the peptide dendrimers in H2O were prepared and 50 μL were diluted serially by ½ in 50 μL PBS (pH 7.4) in 96-well plate (Cornstar or Nunc, polystyrene, untreated). Human red blood cells (hRBC) were obtained by centrifuging 1.5 mL of whole blood from friendly donors at 3000 rpm for 15 minutes. Plasma was discarded and the pellet was re-suspended in a 15 mL falcon tube up to 5 mL of PBS. The washing was repeated three times and the remaining pellet was re-suspended in 10 mL of PBS at a final hRBC concentration of 5%. The hRBC suspension (50 μL) was added to each well and the plate was incubated at room temperature for 4 hours. Minimal haemolytic concentration (MHC) end points were determined by visual inspection of the wells after the incubation period. Controls on each plate included a blank medium control (50 μl PBS+50 μl of hRBC suspension) and a haemolytic activity control (mQ-deionized water 50 μL+50 μL hRBC suspension).
MIC (minimal inhibitory concentration) and MHC (minimal haemolytic concentration, determined on human red blood cells (hRBC)) values are given in μg/mL. When no detectable haemolytic activity was observed, the last measured concentration was used for calculation of the therapeutic index. TI (therapeutic index)=MHC (μg/ml)/geometric mean of MIC (μg/ml). Larger values indicate greater antimicrobial specificity.

[6] = system: Escherichia coli (strain DH5α); format: cell-based
Summary of the method: as §3

male wistar rats = assay: In-vivo toxicity study, single i.v. injection; set-up: species or system rat
Excerpt: 4-6 weeks old male wistar rats (weight range 200-500 g) were used in toxicity experiments. Rats were obtained from Zentrale Tierställe Bern (Department of Clinical Research from University of Bern) and housed 4 per cage. Each experimental group includes two rats. All procedures, care and handling of the animals were reviewed and approved by the Veterinärdienst of Kanton Bern, Schweiz and execute in collaboration with the group of Prof. Hugues Abriel from Department of Clinical Research from University of Bern.
Rats were anesthetized with 4% isoflurane and 1 L/min oxygen in an induction chamber. When the rats were sleeping they were transferred on a clinical drape and anesthetized with 1-2% isoflurane and 0.8 l/min oxygen via a mask. The tail was warmed up with warm water and disinfected with 70% ethanol. The intravenous (i.v.) injections into the tail vein included a single dose of the AMPD of 2 mg/kg rat in 500 μL PBS. Before injection each rat was weighted individually and the exact dosage was determined. All rats, including control groups with no injection and i.v. injection of 500 μL PBS, were monitored for their survival and behavior for two days.
The compounds MSt-112, a 3rd generation AMPD with KL motive, MSt-181 its D-enantiomer analogue, MSt-242, a the 3rd generation with RL motive, and MSt-114 with Tyr instead of Lys in the 3rd generation were used for in vivo experiments with male wistar rats to assess their toxicity. These compounds were selected due to their high potencies and high MHCs values, which are at least 10 times higher than their activities. Each compound (concentration of 2 mg/kg) was applied to two rats by intravenous injection into the tail vein to observe if the AMPDs are well tolerated or may cause adverse effects. The concentration used was approx. 5-10 times higher than the MICs. […] The behaviour of the rats was normal. […] Therefore it seems that rats tolerate AMPDs very well, without visible site effects or even casualties.

[7] = LB medium, serial 2/3 dilution, 37 °C, 18-24 h

CC(C)C[C@H](NC(=O)[C@H](CCCCN)NC(=O)[C@H](CCCCNC(=O)[C@H](CC(C)C)NC(=O)[C@H](CCCCN)NC(=O)[C@H](CCCCNC(=O)[C@H](CC(C)C)NC(=O)[C@@H](N)CCCCN)NC(=O)[C@H](CC(C)C)NC(=O)[C@@H](N)CCCCN)NC(=O)[C@H](CC(C)C)NC(=O)[C@H](CCCCN)NC(=O)[C@H](CCCCNC(=O)[C@H](CC(C)C)NC(=O)[C@@H](N)CCCCN)NC(=O)[C@H](CC(C)C)NC(=O)[C@@H](N)CCCCN)C(N)=O [Compound G2KL] (I: H-KLK([Leu-Lys])KLKKL-NH2 / II: H-KLK([Leu-Lys])KL; amide I:6-II:C; N-terminus assumed)
MIC PAO1 (P. aeruginosa PA01 (WT)): >64 µg/mL
MIC P. aeruginosa MDR clinical isolate PEJ2.6 [1]: >64 µg/mL
MIC P. aeruginosa MDR clinical isolate PEJ9.1 [1]: >64 µg/mL
MIC P. aeruginosa MDR clinical isolate ZEM1A [1]: >64 µg/mL
MIC P. aeruginosa MDR clinical isolate ZEM9A [1]: >64 µg/mL
MIC A. baumannii ATCC19606 (Acinetobacter baumannii): >64 µg/mL
MIC S. aureus COL [2]: >64 µg/mL

CC(C)C[C@H](NC(=O)[C@H](CCCCN)NC(=O)[C@H](CCCCNC(=O)[C@H](CC(C)C)NC(=O)[C@H](CCCCN)NC(=O)[C@H](CCCCNC(=O)[C@H](CC(C)C)NC(=O)[C@H](CCCCN)NC(=O)[C@@H](N)CCCCN)NC(=O)[C@H](CC(C)C)NC(=O)[C@H](CCCCN)NC(=O)[C@@H](N)CCCCN)NC(=O)[C@H](CC(C)C)NC(=O)[C@H](CCCCN)NC(=O)[C@H](CCCCNC(=O)[C@H](CC(C)C)NC(=O)[C@H](CCCCN)NC(=O)[C@@H](N)CCCCN)NC(=O)[C@H](CC(C)C)NC(=O)[C@H](CCCCN)NC(=O)[C@@H](N)CCCCN)C(N)=O [MSt-119, (KKL)4(KKL)2(KKL)] (I: H-KKLK([Leu-Lys-Lys])KLKKL-NH2 / II: H-KKLK([Leu-Lys-Lys])KL; amide I:7-II:C)
MIC P. aeruginosa PAO1 [3, 7]: 3 µg/mL (≈ 1.15 µM)
MIC B. subtilis BR151 ([4]; LB medium): 20 µg/mL (≈ 7.68 µM)
MHC (minimal haemolytic concentration) [5]: 677 µg/mL

CC(C)C[C@H](NC(=O)[C@H](CCCNC(=N)N)NC(=O)[C@H](CCCCNC(=O)[C@H](CC(C)C)NC(=O)[C@H](CCCNC(=N)N)NC(=O)[C@H](CCCCNC(=O)[C@H](CC(C)C)NC(=O)[C@H](CCCNC(=N)N)NC(=O)[C@H](CCCCNC(=O)[C@H](CC(C)C)NC(=O)[C@@H](N)CCCNC(=N)N)NC(=O)[C@H](CC(C)C)NC(=O)[C@@H](N)CCCNC(=N)N)NC(=O)[C@H](CC(C)C)NC(=O)[C@H](CCCNC(=N)N)NC(=O)[C@H](CCCCNC(=O)[C@H](CC(C)C)NC(=O)[C@@H](N)CCCNC(=N)N)NC(=O)[C@H](CC(C)C)NC(=O)[C@@H](N)CCCNC(=N)N)NC(=O)[C@H](CC(C)C)NC(=O)[C@H](CCCNC(=N)N)NC(=O)[C@H](CCCCNC(=O)[C@H](CC(C)C)NC(=O)[C@H](CCCNC(=N)N)NC(=O)[C@H](CCCCNC(=O)[C@H](CC(C)C)NC(=O)[C@@H](N)CCCNC(=N)N)NC(=O)[C@H](CC(C)C)NC(=O)[C@@H](N)CCCNC(=N)N)NC(=O)[C@H](CC(C)C)NC(=O)[C@H](CCCNC(=N)N)NC(=O)[C@H](CCCCNC(=O)[C@H](CC(C)C)NC(=O)[C@@H](N)CCCNC(=N)N)NC(=O)[C@H](CC(C)C)NC(=O)[C@@H](N)CCCNC(=N)N)C(N)=O [MSt-242, (RL)8(KRL)4(KRL)2(KRL)] (I: H-RLK([Leu-Arg])RLKRLKRL-NH2 / II: H-RLK([Leu-Arg])RLKRL / III: H-RLK([Leu-Arg])RL / IV: H-RLK([Leu-Arg])RL; amide I:6-IV:C, I:9-II:C, II:6-III:C)
MIC P. aeruginosa PAO1 ([3]; strain): 8 µg/mL (≈ 1.61 µM)
MIC B. subtilis BR151 ([4]; strain BR151): 11 µg/mL (≈ 2.22 µM)
MIC E. coli DH5α ([6]; DH5α): 3 µg/mL (≈ 0.606 µM)
MIC P. aeruginosa ZEM9.A [1]: > 20 µg/mL
MIC S. aureus (COL, MRSA reference strain) [2]: below 20 μg/mL
visible effects and behaviour after injection (male wistar rats; 2 mg/kg single i.v. dose into tail vein, two rats): No visible effect
survival rate (male wistar rats; 2 mg/kg single i.v. dose, monitored 2 days): 100%

(DabL)8(KDabW)4(KDabW)2(KDabL) [MSt-204]
MIC P. aeruginosa PAO1 [3, 7]: 3 µg/mL
MIC B. subtilis BR151 ([4]; LB medium): 2 µg/mL
MIC E. coli DH5α ([6]; LB medium): 2 µg/mL
MHC (minimal haemolytic concentration) [5]: 146 µg/mL

(KLL)4(KKLL)2(KKLL) [MIS-02]
MIC P. aeruginosa PAO1 [3, 7]: 3 µg/mL
MIC B. subtilis BR151 ([4]; LB medium): 1 µg/mL
MHC (minimal haemolytic concentration) [5]: 15 µg/mL

(LA)8(KLK)4(KLA)2(KKL) [MSt-120]
MIC P. aeruginosa PAO1 [3, 7]: 14 µg/mL
MIC E. coli DH5α ([6]; LB medium): considerably less active
MHC (minimal haemolytic concentration) [5]: 584 µg/mL
